Assay results taken from patent US20110201084A1, “ENZYMATIC HYDROLYSIS OF CELLULOSIC BIOMASS THROUGH ENHANCED REMOVAL OF OLIGOMERS” (THE REGENTS OF THE UNIVERSITY OF CALIFORNIA, priority 2008, published 2011).

Tests used:
[1] = test system: cellulase; test: Effect of xylose oligomer chain length on Avicel glucan initial hydrolysis rate; assay type: biochemical
From the text: FIG. 9 depicts the effect of xylose oligomer chain length on Avicel glucan initial hydrolysis rate at a cellulase loading of thirty FPU/g glucan and CBU to FPU activity ration of two.
Furthermore, these xylooligomers have been found in the liquor from pretreatment prior to enzymatic hydrolysis, with the amounts depending upon the type of pretreatment, substrate, and substrate loading. Furthermore, such xylooligomers can slow glucose and xylose release. […] In accordance with an aspect of the disclosure, 12.5 mg/ml (eighty mM xylose equivalent) of xylose, 6.6 mg/ml (forty-six mM xylose equivalent) and 16.6 mg/ml (one-hundred seventeen mM xylose equivalent) of xylobiose, and 6.6 mg/ml (forty-eight mM xylose equivalent) of xylotriose were added to two ml centrifuge tubes containing thirty mg of commercial grade cellulose in 1.5 ml of liquid at a cellulase loading of thirty FPU/g glucan, and initial hydrolysis rates were measured. Xylose alone at this concentration inhibited yields by about ten percent, but about half as much xylobiose, forty-six mM of xylose equivalent, reduced glucose release by eighteen percent. Furthermore, glucose release dropped by about thirty-two percent at a higher xylobiose loading of one-hundred seventeen mM of xylose equivalent. Adding almost half of the xylose concentration and about the same as the lower concentration of xylobiose, xylotriose (forty-eight mM xylose equivalent) reduced glucose release even more, by about twenty-four percent.

[2] = test system: cellulase; test: Hydrolysis of Avicel cellulose with added birch wood xylan, xylose and β-xylosidase; assay type: biochemical; details: xylose equivalent to 1% (w/v) xylan mixed with Avicel; 7.5 FPU/g glucan; 4 h rate
Procedure: Avicel+xylan−1% (w/v) each, Avicel+xylose−xylose equivalent to 1% (w/v) xylan. b-xylosidase loading was 28 mg/g glucan. Error bars represent the standard deviation.
Hydrolysis of one percent (w/w) commercial grade cellulose with an equal mass of birch wood xylan [approximately eighty-six percent xylan] was performed in triplicate at a cellulase plus β-glucosidase loading of 16.1 mg/glucan. Hydrolysis was also performed at a similar cellulase loading but supplemented with β-xylosidase at a loading of 14 mg/g glucan. To evaluate the effect of xylose alone on cellulose hydrolysis, cellulose containing an equivalent amount of xylose (1.053*amount of xylan) was enzymatically hydrolyzed in parallel. Controlled experiments for cellulose hydrolysis without xylan, cellulose with β-xylosidase only, and a substrate blank containing cellulose plus xylan were run in parallel. Samples were collected four, twenty-four, forty-eight, and seventy-two hours after initiation of hydrolysis and analyzed for sugars. Liquids produced by seventy-two hours of hydrolysis of samples containing xylan were post hydrolyzed to determine the amount of xylooligomers as described herein.
Referring now to FIG. 5, an aspect of the disclosure is the addition of β-xylosidase to effect hydrolysis of cellulose. […]
The concentration of xylose in the hydrolyzate was measured to be 5.5 g/l. […]

## OC1OC[C@@H](O[C@@H]2OC[C@@H](O)[C@H](O)[C@H]2O)[C@H](O)[C@H]1O (some centres unmarked) [xylobiose]
[1]; xylobiose 6.6 mg/ml (forty-six mM xylose equivalent), thirty FPU/g glucan
  reduction of glucose release (Avicel initial hydrolysis): eighteen
[1]; xylobiose 16.6 mg/ml (one-hundred seventeen mM xylose equivalent), thirty FPU/g glucan
  reduction of glucose release (Avicel initial hydrolysis): about thirty-two

## O=C[C@H](O)[C@@H](O)[C@H](O)CO [xylose]
[2]
  inhibition of enzyme action: 12%
[1]; xylose 12.5 mg/ml (eighty mM xylose equivalent), cellulase thirty FPU/g glucan
  reduction of glucose release (Avicel initial hydrolysis): about ten

## OC1OC[C@@H](O[C@@H]2OC[C@@H](O[C@@H]3OC[C@@H](O)[C@H](O)[C@H]3O)[C@H](O)[C@H]2O)[C@H](O)[C@H]1O (some centres unmarked) [xylotriose]
[1]; xylotriose 6.6 mg/ml (forty-eight mM xylose equivalent), thirty FPU/g glucan
  reduction of glucose release (Avicel initial hydrolysis): about twenty-four
